Experimental data from patent US20080220056A1, “Treatment for liver disease” (UNIVERSITY OF SOUTHAMPTON, priority 2002, published 2008).
Marks after values point to notes of the source that are not given here.

Key:
[1] = tested on: carbon tetrachloride model of liver fibrosis; experiment: Carbon tetrachloride (in vivo) model of liver fibrosis, weekly gliotoxin injection; design: species or system rat; details: for Liver α-sma staining (number of α-sma-positive cells) / Serum ALP / Serum ALT / Sirius red staining (mid intralobular μm): weekly gliotoxin injection 3 mg/kg i.p.
Description: (§1) Rats were randomly sorted into groups and treated with 2 mL CCl4:olive oil (1:1 [vol/vol])/kg body weight by intraperitoneal injection twice weekly to cause liver fibrosis. Control animals were treated with 1 mL olive oil/kg body weight by intraperitoneal injection. Gliotoxin was administered at up to 3 mg gliotoxin/kg body weight by intraperitoneal injection. Gliotoxin was dissolved in dimethyl sulfoxide (DMSO) as a vehicle, and control animals received DMSO alone.
(§2) At the required time, rats were killed by carbon dioxide asphyxiation and tissues removed for analysis. Serum was prepared and analyzed for alkaline phosphatase and alanine aminotransferase activities essentially as previously described. (Wright et al., Biochem. Pharmacol., (1992) 43:237-243) Histochemical staining of formalin-fixed liver sections with H&E, Sirius red, and immunochemical staining for α-smooth muscle actin were performed essentially as previously described (Iredale et al.,—1998—supra)

[2] = tested on: carbon tetrachloride model of liver fibrosis; experiment: Carbon tetrachloride (in vivo) model of liver fibrosis, single gliotoxin injection; design: species or system rat; details: for Serum ALP / Serum ALT: killed 24 hours after gliotoxin
Description: as §1, §2
The effect of a single injection of gliotoxin on α-smooth muscle actin liver immunostaining after treatment for seven weeks with carbon tetrachloride was then determined. One day after the final injection of carbon tetrachloride, rats were administered gliotoxin and killed after a further day.
The effect of a single injection of gliotoxin on liver TUNEL staining after treatment for seven weeks with carbon tetrachloride was measured. One day after the final injection of carbon tetrachloride, rats were administered gliotoxin and then killed after a further day. Control animals received DMSO alone in place of gliotoxin. Liver sections from the rats were TUNEL stained with or without the incorporation of dUTP in the staining protocol. Sections were then counterstained with hematoxylin.
The effect of a single injection of gliotoxin on liver sirius red staining after treatment for seven weeks with carbon tetrachloride was then determined. As before, one day after the final injection of carbon tetrachloride, rats were administered gliotoxin and killed after a further day.

[3] = tested on: rat hepatocytes; experiment: DNA laddering in rat hepatocytes; format: cell-based; details: four hours; 50 μmol/L gliotoxin, 200 μmol/L chlorpromazine, 200 μmol/L methapyrilene, 10 ng/mL TNF-α with cycloheximide
Description: Hepatic stellate cells cultured in 35-mm diameter dishes (Greiner) were harvested, pelleted by centrifugation and DNA fragmentation determined as outlined elsewhere (Elsharkawy et al., Hepatology (1999) 30:761-769). Propidium Iodide Flow-Activated Cell Sorting Analysis Detached cells were pelleted by centrifugation, washed in PBS, and resuspended in HYPO buffer (0.1% wt/vol) Na3Citrate and 0.1% (wt/vol) Triton™ X-100 containing […] propidium iodide and incubated for 1 hour. The cells were then analyzed by fluorescence-activated cell sorter (FACS) with a Becton Dickinson (San Jose, Calif.) FACScan instrument using a 488 nm excitation wavelength with a band pass filter set at 530 nm. Attached cells were scraped in HYPO buffer after washing cells with PBS.
DNA laddering was also used to compare the effect of gliotoxin, chlorpromazine, methapyrilene and also the combination of TNF-α with cycloheximide on hepatocytes and hepatic stellate cells.

[4] = Pilot study for gliotoxin toxicity in rats; format: in vivo, rat; details: 3 mg/kg body weight
[5] = tested on: rat hepatic stellate cells; experiment: Trypan blue exclusion of treated rat hepatic stellate cells; format: cell-based; details: rat HSC; 1.5 μmol/L gliotoxin or 200 μmol/L chlorpromazine
[6] = tested on: intracellular Ca2+ in rat hepatic stellate cells; experiment: Confocal microscopy of fluo-3 (intracellular calcium); format: cell-based; details: 1.5 μmol/L gliotoxin
Description: Intracellular calcium concentrations were examined by preloading activated hepatic stellate cells seeded onto 35-mm diameter dishes with 2.5 μmol/L Fluo-3AM for two hours. Mitochondrial integrity was determined by coloading cells with […] TMRM and 1 μmol/M calcein-AM for three hours. After loading, the culture medium was removed and the cells were washed extensively with confocal buffer (145 mmol/L NaCl, 5 mml/L KCl, 1 mmol/L MgSO4, 1 mmol/L NaH2PO4, 10 mmol/L HEPES, 25 mmol/L glucose, 1 mmol/L CaCl2 and 2 mg/mL bovine serum albumin, pH 7.4) and incubated at 37° C. in 2 mL confocal buffer containing 1.5 μmol/L gliotoxin or DMSO vehicle control.
Fluo-3 and calcein fluorescence were excited at 488 nm and collected at 515-530 nm using a band width filter. TMRM was excited at 543 nm and collected at wavelengths greater than 570 nm.
MPT results in futile Ca^2+ cycling by mitochondria, which enhances the likelihood of cell death (Crompton et al., Biochem. J. (1999) 341: 233-249). The role of the MPT in the late events of gliotoxin apoptosis was also therefore assessed by measuring intracellular calcium levels. Culture-activated (14-day) rat hepatic stellate cells in six-well plates were loaded with fluo-3 and fluorescence imaged as outlined in the Materials and methods section after treatment with DMSO control or 1.5 μmol/L gliotoxin.

[7] = tested on: rat hepatic stellate cells; experiment: TUNEL staining of cultured rat hepatic stellate cells; format: cell-based; details: 1.5 μmol/L gliotoxin, two hours
Source text: Rat and human hepatic stellate cells and rat liver tissue were fixed in 4% paraformaldehyde in PBS or 10% formalin in PBS, respectively, before being stained with Giemsa. DNA fragmentation was examined by labeling of 3′-OH DNA ends by the enzymatic addition of digoxygenin-labeled deoxyuridine triphosphate (dUTP) using terminal deoxynucleotidyl transferase using a kit from Boehringer essentially as described by the manufacturer. Rat liver tissue sections were pretreated with diethyl pyrocarbonate as described previously (Stahelin et al., J. Clin. Pathol. Mol. Pathol. (1998) 51:204-208) to reduce nonspecific reaction.
DNA strand breaks were also characterized by TUNEL staining. Culture-activated (14-day) rat hepatic stellate cells were treated with 0.05% (vol/vol) DMSO or 1.5 μmol/L gliotoxin for two hours and DNA strand breaks examined by TUNEL staining as outlined in Materials and Methods.

[8] = single gliotoxin injection 0.3 mg/kg i.p., CCl4 twice weekly seven weeks
[9] = single gliotoxin injection 0.3 mg/kg i.p., no CCl4 (olive oil seven weeks)
[10] = single gliotoxin injection 3 mg/kg i.p., CCl4 twice weekly seven weeks
[11] = single gliotoxin injection 3 mg/kg i.p., no CCl4 (olive oil seven weeks)

CN1C(=O)[C@]23CC4=CC=C[C@H](O)[C@H]4N2C(=O)[C@@]1(CO)SS3 [gliotoxin]
liver serum enzymes caused by carbon tetrachloride treatment ([1]; gliotoxin administered during CCl4 treatment): significantly reduces the levels of liver serum enzymes | number of activated hepatic stellate cells and thickness of fibrotic bands ([1]; gliotoxin administered during the liver insult (CCl4)): significantly reduces the number of activated hepatic stellate cells and thickness of fibrotic bands | hepatotoxicity of long term administration ([1]; weekly gliotoxin): no evidence that long term administration of gliotoxin is itself hepatotoxic | Liver α-sma staining (number of α-sma-positive cells) ([1]; CCl4 twice weekly 4 weeks): 6 ± 1.2 | Serum ALP ([1]; CCl4 twice weekly 4 weeks): 429 ± 25^a μ/mL | Serum ALT ([1]; CCl4 twice weekly 4 weeks): 300 ± 111^b μ/mL | Sirius red staining (mid intralobular μm) ([1]; CCl4 twice weekly 4 weeks): 4.6 ± 3.1^£ μm | Liver α-sma staining (number of α-sma-positive cells) ([1]; no CCl4 (olive oil 4 weeks)): 1.4 ± 1.38 | Serum ALP ([1]; no CCl4 (olive oil 4 weeks)): 249 ± 26 μ/mL | Serum ALT ([1]; no CCl4 (olive oil 4 weeks)): 89 ± 58 μ/mL | Sirius red staining (mid intralobular μm) ([1]; no CCl4 (olive oil 4 weeks)): 0 μm | reduction in number of α-smooth muscle actin-positive cells in CCl4 treated rat liver ([2]; single dose of 3 mg/kg body wt): 57% | Liver α-sma staining (number of α-sma-positive cells) [2, 8]: 35 ± 11.4 | Sirius red staining (mid intralobular μm) [2, 8]: 9 ± 2.3 μm | Serum ALP [2, 8]: 790 ± 128 μ/mL | Serum ALT [2, 8]: 1310 ± 342 μ/mL | Liver α-sma staining (number of α-sma-positive cells) [2, 9]: 2.5 ± 0.70 | Sirius red staining (mid intralobular μm) [2, 9]: 0 μm | Serum ALP [2, 9]: 336 ± 48 μ/mL | Serum ALT [2, 9]: 59 ± 4 μ/mL | Liver α-sma staining (number of α-sma-positive cells) [2, 10]: 16 ± 6.4 | Sirius red staining (mid intralobular μm) [2, 10]: 7 ± 3.6^£ μm | Serum ALP [2, 10]: 755 ± 295 μ/mL | Serum ALT [2, 10]: 1740 ± 1100 μ/mL | Liver α-sma staining (number of α-sma-positive cells) [2, 11]: 1.2 ± 0.24 | Sirius red staining (mid intralobular μm) [2, 11]: 0 μm | Serum ALP [2, 11]: 269 ± 25 μ/mL | Serum ALT [2, 11]: 50 ± 5 μ/mL | TUNEL-positive cells in liver regions staining for α-smooth muscle actin ([2]; single gliotoxin injection after seven weeks CCl4): increase in the number of TUNEL-positive cells | fibrosis on blinded examination of sirius red stained liver sections ([2]; single injection of gliotoxin at 3 mg/kg after seven weeks CCl4): significantly reduced fibrosis | change in serum liver enzyme levels ([2]; single injection of gliotoxin to control or carbon tetrachloride treated rats): did not result in any significant change in serum liver enzyme levels | cleavage of hepatocyte DNA to a nucleosomal ladder [3]: only hepatocytes treated with TNF-α and cycloheximide cleaved their DNA to a nucleosomal ladder | apparent ill effects [4]: did not cause any apparent ill effects in rats | hepatic damage on histologic sections of the liver [4]: no evidence of hepatic damage | 0.1% (wt/vol) trypan blue exclusion (membrane integrity) [5]: detached cells that excluded 0.1% (wt/vol) trypan blue | intracellular Ca2+ levels [6]: do not rise until two hours of incubation | TUNEL staining [7]: extensive TUNEL-positive staining
